“Also recorded” adds a separate entry of the source.
Experiments:
HIV-1 IIIB = test: HIV-1 infectivity assay against non-drug-resistant strain in H9 lymphocytes; assay type: cell-based; conditions: for anti-HIV activity in words: HIV-1 replication in H9 lymphocytes; for EC50: concentration that inhibits HIV-1IIIB replication by 50%: H9 lymphocytes, p24, day 6 PI
uninfected H9 cells = test: Toxicity to mock-infected H9 cells; assay type: cell-based; conditions: human, mock-infected (uninfected) H9 T-cells

Structure (SMILES)	anti-HIV activity in words (HIV-1 IIIB)	EC50: concentration that inhibits HIV-1IIIB replication by 50% (HIV-1 IIIB)	IC50 at 6 days (uninfected H9 cells) [µM]
Cc1cc(=O)oc2c3c(ccc12)S[C@H](C)[C@H](OC(=O)[C@]12CC[C@](C)(C(=O)O1)C2(C)C)[C@@H]3OC(=O)[C@]12CC[C@](C)(C(=O)O1)C2(C)C [Compound 8, (2′R,3′R,4′R)-1′-Thia-2′,4-Dimethyl-3′,4′-di-O-(−)-camphanoyl-(+)-cis-khellactone]	much weaker inhibitory activity	–	–
Cc1cc(=O)oc2c3c(ccc12)S[C@H](C)[C@@H](OC(=O)[C@]12CC[C@](C)(C(=O)O1)C2(C)C)[C@H]3OC(=O)[C@]12CC[C@](C)(C(=O)O1)C2(C)C [Compound 7b, (2′R,3′S,4′S) -1′-Thia-2′,4-dimethyl-3′,4′-di-O-(−)-camphanoyl-(+)-cis-khellactone]	inactivity	no suppression	–
Cc1cc(=O)oc2c3c(ccc12)O[C@H](C)[C@H](OC(=O)[C@]12CC[C@](C)(C(=O)O1)C2(C)C)[C@@H]3OC(=O)[C@]12CC[C@](C)(C(=O)O1)C2(C)C [Compound 6, (2′R,3′S,4′R)-2′,4-Dimethyl-3′,4′-di-O-(−)-camphanoyl-(+)-cis-khellactone]	inactive at the test concentrations; also recorded: much weaker inhibitory activity	no suppression	–
Cc1cc(=O)oc2c3c(ccc12)S(=O)(=O)[C@H](C)[C@H](OC(=O)[C@]12CC[C@](C)(C(=O)O1)C2(C)C)[C@@H]3OC(=O)[C@]12CC[C@](C)(C(=O)O1)C2(C)C [Compound 12, (8R,9R,10R)-1′-Sulfone-2′,4-dimethyl-3′,4′-di-O-(−)-camphanoyl-(+)-cis-khellactone]	–	no suppression	–
Cc1cc(=O)oc2c3c(ccc12)OC(C)(C)[C@H](OC(=O)[C@]12CC[C@](C)(C(=O)O1)C2(C)C)[C@@H]3OC(=O)[C@]12CC[C@](C)(C(=O)O1)C2(C)C [Compound 2]	–	–	> 39.2
Cc1cc(=O)oc2c3c(ccc12)O[C@H](C)[C@@H](OC(=O)[C@]12CC[C@](C)(C(=O)O1)C2(C)C)[C@H]3OC(=O)[C@]12CC[C@](C)(C(=O)O1)C2(C)C [Compound 5b, (2′R,3′R,4′S)-2′,4-Dimethyl-3′,4′-di-O-(−)-camphanoyl-(+)-cis-khellactone]	low potency	–	–
Cc1cc(=O)oc2c3c(ccc12)[S+]([O-])[C@@H](C)C(OC(=O)C12CCC(C)(C(=O)O1)C2(C)C)C3OC(=O)C12CCC(C)(C(=O)O1)C2(C)C (stereo partly drawn) [9a+9b, 1′-Sulfoxide-2′,4-dimethyl-3′,4′-di-O-(−)-camphanoyl-(+)-cis-khellactone]	–	no suppression	–

From publication PMC2949462 (Bioorganic & medicinal chemistry, 2010)
